Laboratory results as given in US6455268B1, “Hydrolytic enzyme substrates and assay method” (Iconix Pharmaceuticals Inc., priority 1999, dated 2002).

Assays:
β-glucuronidase (GUS) = biological target: T1, β-glucuronidase (GUS) (Escherichia coli, UniProt P05804); experiment: in vitro hydrolysis with β-glucuronidase, fluorimeter excitation and emission spectra; format: biochemical, E. coli
T1 construct: purchased Sigma Chemicals, St. Louis, Mo
Experimental: A fluorimetery cuvette was prepared by adding 3 μL of 0.5 mM 7CC-FDG in DMSO (Compound F), to 3 mL of 50 mM Hepes buffer, pH 7.0, with 1 mM each CaCl2 and MgSO4. Fluorescent excitation and emission spectra of the sample were recorded using a Jobin-Yvon-SPEX Instruments Fluormax-2 fluorimeter under the following conditions: excitation at 300-500 nm with emission recorded at 515 or 530 nm (FIG. 4, scan A and B respectively); excitation at 350 nm and emission recorded at 425-650 nm (FIG. 4, scan C); excitation at 406 nm and emission recorded at 425-530 nm (FIG. 4, scan D); and excitation at 488 nm with emission recorded at 500-650 nm (FIG. 4, scan E). […] The ratio computed is the emission at 450 nm when the exciting light was of 350 nm or 406 nm divided by the emission at 515 nm when the exciting light was of 488 nm.

[1] = tested on: orange peel acetylesterase (OPAE); experiment: in vitro hydrolysis with orange peel acetylesterase, fluorescence/FRET plate reading; format: biochemical
Experimental: (§1) Ninety-six well microtiter plates were prepared containing duplicate samples, each sample containing 4-(5-chloro-6-hydroxycoumarinamido)butyl-5-carboxamidofluorescein diacetate (“Compound 11”, 2 mM, 2 μL) in DMSO with phosphate buffered saline (PBS, 200 μL, pH 7.0). To each well was added orange peel acetylesterase (OPAE, Sigma, St. Louis, Mo., 5 μL, 39 U/mL) as a suspension in (NH4)2SO4 (2.5 M) and sodium oxalate (0.1 M). A set of control samples was prepared in which the OPAE was replaced with PBS (no enzyme). […] The plate was read prior to OPAE addition, at time 0, and at 5, 10, 30, 60, and 150 minutes after addition. Each reading was taken at three wavelength pairs using a Molecular Devices fmax fluorescent plate reader: excite 485/emission 530 (to measure fluorescein fluorescence); excite 350/emission 530 (to measure FRET fluorescence); and excite […] (to measure coumarin fluorescence).
A control set of experiments was preformed as above, but substituting a mixture of equal molar amounts of 5-carboxyfluorescein diacetate (5-CFDA, Calbiochem) and 6-chloro-7-hydroxycoumarin methyl ester. This mixture was non-fluorescent at 530 nm prior to OPAE addition and was fluorescent at 460 nm. […] Furthermore, in this unlinked mixture case, the ratio of 530 nm to 460 nm only changed from 0.13 to 0.7; in contrast to the ratio change for the compound above, from 0.13 to 13.5.

[2] = control samples with OPAE replaced by PBS (no enzyme), non-enzymatic hydrolysis; format: physicochemical; conditions: PBS pH 7.0, no enzyme
Experimental: as §1

T1 sequence (P05804 whole entry): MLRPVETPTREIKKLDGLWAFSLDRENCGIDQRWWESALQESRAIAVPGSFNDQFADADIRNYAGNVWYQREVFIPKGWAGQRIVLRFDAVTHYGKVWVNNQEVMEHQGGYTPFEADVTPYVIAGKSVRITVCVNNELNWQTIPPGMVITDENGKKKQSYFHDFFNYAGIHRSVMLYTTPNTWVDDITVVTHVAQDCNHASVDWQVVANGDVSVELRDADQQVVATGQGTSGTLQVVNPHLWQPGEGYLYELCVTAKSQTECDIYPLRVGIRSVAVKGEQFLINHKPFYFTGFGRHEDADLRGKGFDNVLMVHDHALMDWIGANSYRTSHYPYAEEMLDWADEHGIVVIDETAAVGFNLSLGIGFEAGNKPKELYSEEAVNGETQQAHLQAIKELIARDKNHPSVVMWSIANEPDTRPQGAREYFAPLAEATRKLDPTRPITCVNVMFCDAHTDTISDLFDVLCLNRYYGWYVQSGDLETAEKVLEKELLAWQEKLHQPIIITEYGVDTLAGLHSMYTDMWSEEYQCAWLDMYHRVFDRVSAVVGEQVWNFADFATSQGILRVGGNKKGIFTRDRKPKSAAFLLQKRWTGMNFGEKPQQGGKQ

Row | ratio of 530 nm to 460 nm emission, end of change ([1]; after OPAE hydrolysis (0.94 U/mL, read up to 150 minutes), excitation 350 nm, PBS pH 7.0) | change of coumarin fluorescence (460 nm) after OPAE addition ([1]; in the presence of OPAE) | ratio of 530 nm to 460 nm emission, start of change ([1]; prior to OPAE hydrolysis, excitation 350 nm, PBS pH 7.0) | Compound | cleavage of the substrate by β-glucuronidase (β-glucuronidase (GUS); 72 Units GUS, 50 mM Hepes pH 7.0) | dynamic range of emission ratio 450 nm/515 nm (β-glucuronidase (GUS); excitation at 350 nm and 488 nm, respectively) | dynamic range of emission ratio 450/515 (β-glucuronidase (GUS); excitation at 406 nm and 488 nm) | quenching of the coumarin moiety fluorescence in the completely cleaved product (β-glucuronidase (GUS); scan D (excitation 406 nm), 60 min. versus 0 min. time point) | non-enzymatic hydrolysis [2]
1 | – | – | – | O=C(O)CCC(NC(=O)Nc1ccc2c(c1)C(=O)OC21c2ccc(OC3OC(C(=O)O)C(O)C(O)C3O)cc2Oc2cc(OC3OC(C(=O)O)C(O)C(O)C3O)ccc21)C(=O)NCCCCNC(=O)c1cc2cc(Cl)c(O)cc2oc1=O (centres unmarked) [Compound 7CC-FDG] | can be cleaved by β-glucuronidase readily | about 23 fold | about 50 fold | more than 50% | –
2 | 13.5 | decrease in fluorescence | 0.13 | CC(=O)Oc1ccc2c(c1)Oc1cc(OC(C)=O)ccc1C21OC(=O)c2cc(C(=O)NCCCCNC(=O)c3cc4c(Cl)c(O)ccc4oc3=O)ccc21 [Compound 11, 4-(5-chloro-6-hydroxycoumarinamido)butyl-5-carboxamidofluorescein diacetate] | – | – | – | – | very low rates of non-enzymatic hydrolysis
